Data as given in patent US20110082130A1 (LIGAND PHARMACEUTICALS, INC., priority 2006, published 2011).

biological target: T1, chimeric human H3 receptor (Homo sapiens, UniProt Q9Y5N1); experiment: Chimeric human H3 receptor GTP binding assay (agonist-stimulated GTP-gamma35S binding, Example 7); assay type: biochemical; conditions: Table I; P2 membranes of Sf9 cells, 1 μM histamine as agonist, Ki from IC50 by Cheng-Prusoff
T1 construct: made in house; host or cells: Sf9 insect cells (baculovirus); P2 membrane preparation
T1 sequence (Q9Y5N1 with tags, fused parts or gaps): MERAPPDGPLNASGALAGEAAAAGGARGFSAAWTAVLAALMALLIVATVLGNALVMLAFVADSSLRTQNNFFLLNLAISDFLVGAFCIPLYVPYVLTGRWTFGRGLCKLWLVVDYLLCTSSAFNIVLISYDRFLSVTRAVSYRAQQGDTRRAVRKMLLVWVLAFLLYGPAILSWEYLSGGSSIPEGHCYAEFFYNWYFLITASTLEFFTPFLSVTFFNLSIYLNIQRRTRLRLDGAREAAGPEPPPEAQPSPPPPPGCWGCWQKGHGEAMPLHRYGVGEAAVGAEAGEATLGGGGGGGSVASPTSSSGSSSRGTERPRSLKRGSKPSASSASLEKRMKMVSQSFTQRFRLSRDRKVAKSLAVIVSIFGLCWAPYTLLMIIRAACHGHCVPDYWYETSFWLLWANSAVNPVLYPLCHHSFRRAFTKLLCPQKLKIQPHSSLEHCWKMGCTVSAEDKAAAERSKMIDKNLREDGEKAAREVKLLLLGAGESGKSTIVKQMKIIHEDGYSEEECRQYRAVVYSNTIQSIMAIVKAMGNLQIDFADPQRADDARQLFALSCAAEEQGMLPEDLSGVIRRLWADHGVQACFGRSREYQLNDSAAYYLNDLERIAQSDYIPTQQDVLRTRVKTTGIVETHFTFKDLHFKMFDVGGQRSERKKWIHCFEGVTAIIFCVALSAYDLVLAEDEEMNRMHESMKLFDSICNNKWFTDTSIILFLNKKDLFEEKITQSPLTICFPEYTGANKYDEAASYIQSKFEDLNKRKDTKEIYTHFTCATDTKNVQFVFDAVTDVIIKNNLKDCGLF
Source text: This Example illustrates a representative assay for evaluating agonist-stimulated GTP-gamma^35S binding (“GTP binding”) activity. […] This agonist-stimulated GTP binding activity can also be used to detect partial agonism mediated by antagonist compounds. A compound analyzed in this assay is referred to herein as a “test compound.”
Four independent baculoviral stocks (one directing the expression of the chimeric human H3 receptor and three directing the expression of each of the three subunits of a heterotrimeric G-protein) are used to infect a culture of Sf9 cells as described above. P2 membranes are prepared as described above, and agonist-stimulated GTP binding on the P2 membranes is assessed using histamine (Sigma Chemical Co., St. Louis, Mo.) as agonist in order to ascertain that the receptor/G-protein-alpha-beta-gamma combination(s) yield a functional response as measured by GTP binding. P2 membranes are resuspended by Dounce homogenization (tight pestle) in GTP binding assay buffer (50 mM Tris pH 7.4, 120 mM NaCl, 5 mM MgCl2, 2 mM EGTA, 1 mg/ml BSA, 0.2 mg/ml bacitracin, 0.02 mg/ml aprotinin, 0.01 mg/ml saponin, 10 μM GDP) and added to assay tubes at a concentration of 35 μg protein/reaction tube. After adding increasing doses of histamine at concentrations ranging from 10^−12 M to 10^−5 M, reactions are initiated by the addition of […] GTP-gamma^35S (PERKIN ELMER; Boston, Mass.) with a final assay volume of 0.20 ml. In competition experiments, non-radiolabeled test compounds are added to separate reactions at concentrations ranging from 10^−10 M to 10^−6 M along with 1 μM histamine to yield a final volume of 0.20 ml.
Neutral antagonists are antagonists that are substantially free of inherent agonist activity, and include those test compounds that reduce the histamine-stimulated GTP binding activity towards, but not below, baseline levels. In contrast, in the absence of added histamine, inverse agonists reduce the GTP binding activity of the receptor-containing membranes below baseline.
After a 60-min incubation at room temperature, reactions are terminated by vacuum filtration over WHATMAN GF/C filters (pre-soaked in wash buffer, 0.1% BSA) followed by washing with ice-cold wash buffer (50 mM Tris pH 7.4, 120 mM NaCl). The amount of receptor-bound (and thereby membrane-bound) GTP-gamma^35S is determined by measuring the filter-bound radioactivity, preferably by liquid scintillation spectrometry of the washed filters. Non-specific binding is determined in parallel assays including 10 μM unlabeled GTP-gammaS and typically represents less than 5 percent of total binding. Data is expressed as percent above basal (baseline). The results of GTP binding experiments are analyzed using SIGMAPLOT software (SPSS Inc., Chicago, Ill.). IC50 values are calculated by non-linear regression analysis of dose-response curves using Kaleidograph (Synergy Software, Reading, Pa.).
Alternatively the data is analyzed as follows. First, the average bound radioactivity from negative control wells (no agonist) is subtracted from the bound radioactivity detected for each of the other experimental wells. Second, average bound radioactivity is calculated for the positive control wells (agonist wells). Then, percent inhibition for each compound tested is calculated using the equation:
Calculated IC50 values are converted to K1 values by the Cheng-Prusoff correction (Cheng and Prusoff (1973) Biochem. Pharmacol. 22(23):3099-3108). Accordingly, the following equation: Ki=IC50/(1+[L]/EC50) is used, where [L] is the histamine concentration in the GTP binding assay, and EC50 is the concentration of histamine producing a 50% response, as determined by a dose-response analysis using concentrations of histamine ranging from 10^−10 M to 10^−6M. […]

Ki, < 1000 nM:
CCC(=O)c1ccc2c(c1)CCN(CC(=O)N1CCN(C3CCC3)CC1)C2 [Compound 73, 1-{2-[2-(4-cyclobutylpiperazin-1-yl)-2-oxoethyl]-1,2,3,4-tetrahydroisoquinolin-6-yl}propan-1-one]

same assay, conditions: Table II "Ki", symbol *; assay of Example 7

Ki, < 1000 nM:
C[C@H]1CN(C(=O)CN2CCc3cc(-c4cncnc4)ccc3C2)CCN1C1CCCCC1 [Compound 616, 2-{2-[(3S)-4-cyclohexyl-3-methylpiperazin-1-yl]-2-oxoethyl}-6-pyrimidin-5-yl-1,2,3,4-tetrahydroisoquinoline]
CC1CCCC1N1CCN(C(=O)CN2CCc3cc(-c4cncnc4)ccc3C2)CC1 (stereo not drawn) [Compound 613, 2-{2-[4-(2-methylcyclopentyl)piperazin-1-yl]-2-oxoethyl}-6-pyrimidin-5-yl-1,2,3,4-tetrahydroisoquinoline]
Cc1ccnc(-c2ccc3c(c2)CCN(CC(=O)N2CCN(C4CCC4)CC2)C3)c1 [Compound 630, 2-[2-(4-cyclobutylpiperazin-1-yl)-2-oxoethyl]-6-(4-methylpyridin-2-yl)-1,2,3,4-tetrahydroisoquinoline]

same assay, conditions: Table II; "*" = Ki in assay of Example 7 less than 1 micromolar

Ki, < 1000 nM:
CC1CCC[C@H]2CN(C(=O)CN3CCc4nc(Cl)sc4C3)CCN12 (stereo in doubt) [Compound 147, 2-[(2-chloro-6,7-dihydro[1,3]thiazolo [5,4-c]pyridin-5(4H)-yl)acetyl]-6-methyloctahydro-2H-pyrido[1,2-a]pyrazine]
CC1CCCC1N1CCN(C(=O)CN2CCc3nc(N4CCCC4)ncc3C2)CC1 (stereo not drawn) [Compound 218, 6-{2-[4-(2-methylcyclopentyl)piperazin-1-yl]-2-oxoethyl}-2-pyrrolidin-1-yl-5,6,7,8-tetrahydropyrido[4,3-d]pyrimidine]
Cc1c2c(nn1-c1ccc(C#N)cn1)CCN(CC(=O)N1CCN(C3CCC3)CC1)C2 [Compound 274, 6-{5-[2-(4-cyclobutylpiperazin-1-yl)-2-oxoethyl]-3-methyl-4,5,6,7-tetrahydro-2H-pyrazolo[4,3-c]pyridin-2-yl}nicotinonitrile]
O=C(CN1CCc2cc(-n3nccn3)ccc2C1)N1CCN(C2CCC2)CC1 [Compound 209, 2-[2-(4-cyclobutylpiperazin-1-yl)-2-oxoethyl]-6-(2H-1,2,3-triazol-2-yl)-1,2,3,4-tetrahydroisoquinoline]
CNC(=O)c1cnc2c(c1)CCN(CC(=O)N1CCN(C3CCC3)C(C)C1)C2 (stereo not drawn) [Compound 121, 7-[2-(4-cyclobutyl-3-methylpiperazin-1-yl)-2-oxoethyl]-N-methyl-5,6,7,8-tetrahydro-1,7-naphthyridine-3-carboxamide]
CN(C)c1ccc2c(n1)CCN(CC(=O)N1CCN(C3CCC3)CC1)C2 [Compound 224, 6-[2-(4-cyclobutylpiperazin-1-yl)-2-oxoethyl]-N,N-dimethyl-5,6,7,8-tetrahydro-1,6-naphthyridin-2-amine]
O=C(NC1CCCC1)c1ccc2c(c1)CCN(CC(=O)N1CCN(C3CCC3)CC1)C2 [Compound 88, 2-[2-(4-cyclobutylpiperazin-1-yl)-2-oxoethyl]-N-cyclopentyl-1,2,3,4-tetrahydroisoquinoline-6-carboxamide]
CC(=O)c1ccc2c(c1)CCN(CC(=O)N1CCN(C3CCC3)CC1)CC2 [Compound 101, 1-{3-[2-(4-cyclobutylpiperazin-1-yl)-2-oxoethyl]-2,3,4,5-tetrahydro-1H-3-benzazepin-7-yl}ethanone]
COc1ccc(-n2cc3c(n2)CCN(CC(=O)N2CCN(C4CCC4)CC2)C3)cc1 [Compound 238, 5-[2-(4-cyclobutylpiperazin-1-yl)-2-oxoethyl]-2-(4-methoxyphenyl)-4,5,6,7-tetrahydro-2H-pyrazolo[4,3-c]pyridine]
O=C(CN1CCc2c(cnn2-c2cncnc2)C1)N1CCN(C2CCC2)CC1 [Compound 251, 5-[2-(4-cyclobutylpiperazin-1-yl)-2-oxoethyl]-1-pyrimidin-5-yl-4,5,6,7-tetrahydro-1H-pyrazolo[4,3-c]pyridine]
O=C(CN1CCc2cc(Oc3ccc(C(F)(F)F)cn3)ccc2C1)N1CCN(C2CCC2)CC1 [Compound 198, 2-[2-(4-cyclobutylpiperazin-1-yl)-2-oxoethyl]-6-{[5-(trifluoromethyl)pyridin-2-yl]oxy}-1,2,3,4-tetrahydroisoquinoline]

same assay, conditions: Table II; assay of Example 7

Ki, < 1000 nM:
N#CC1CCN(c2ncc3c(n2)CCN(CC(=O)N2CCN(C4CCC4)CC2)C3)CC1 [Compound 690, 1-{6-[2-(4-cyclobutylpiperazin-1-yl)-2-oxoethyl]-5,6,7,8-tetrahydropyrido[4,3-d]pyrimidin-2-yl}piperidine-4-carbonitrile]

same assay, conditions: assay of Example 7; "*" in Ki of Table II

Ki, < 1000 nM:
O=C(CN1CCc2nc(C(F)(F)F)ncc2C1)N1CCN(C2CCC2)CC1 [Compound 292, 6-[2-(4-cyclobutylpiperazin-1-yl)-2-oxoethyl]-2-(trifluoromethyl)-5,6,7,8-tetrahydropyrido[4,3-d]pyrimidine]
COc1ccc(-n2ncc3c2CCN(CC(=O)N2CCN(C4CCC4)CC2)C3)nn1 [Compound 290, 5-[2-(4-cyclobutylpiperazin-1-yl)-2-oxoethyl]-1-(6-methoxypyridazin-3-yl)-4,5,6,7-tetrahydro-1H-pyrazolo[4,3-c]pyridine]
Cc1ccc(-n2ncc3c2CCN(CC(=O)N2CCN(C4CCC4)CC2)C3)nn1 [Compound 288, 5-[2-(4-cyclobutylpiperazin-1-yl)-2-oxoethyl]-1-(6-methylpyridazin-3-yl)-4,5,6,7-tetrahydro-1H-pyrazolo[4,3-c]pyridine]
CC(C)Oc1cccc(-c2nc3c(s2)CN(CC(=O)N2CCN(C4CCC4)CC2)CC3)c1 [Compound 325, 5-[2-(4-cyclobutylpiperazin-1-yl)-2-oxoethyl]-2-(3-isopropoxyphenyl)-4,5,6,7-tetrahydro[1,3]thiazolo [5,4-c]pyridine]
O=C(CN1CCc2nc(-c3ccc(F)cc3F)sc2C1)N1CCN(C2CCC2)CC1 [Compound 348, 5-[2-(4-cyclobutylpiperazin-1-yl)-2-oxoethyl]-2-(2,4-difluorophenyl)-4,5,6,7-tetrahydro[1,3]thiazolo [5,4-c]pyridine]
O=C(CN1CCc2c(cnn2-c2cccnn2)C1)N1CCN(C2CCC2)CC1 [Compound 285, 5-[2-(4-cyclobutylpiperazin-1-yl)-2-oxoethyl]-1-pyridazin-3-yl-4,5,6,7-tetrahydro-1H-pyrazolo[4,3-c]pyridine]
CC(C)c1ccccc1-c1nc2c(s1)CN(CC(=O)N1CCN(C3CCC3)CC1)CC2 [Compound 362, 5-[2-(4-cyclobutylpiperazin-1-yl)-2-oxoethyl]-2-(2-isopropylphenyl)-4,5,6,7-tetrahydro[1,3]thiazolo [5,4-c]pyridine]
O=C(CN1CCc2nc(-c3cc(C(F)(F)F)ccc3Cl)sc2C1)N1CCN(C2CCC2)CC1 [Compound 374, 2-[2-chloro-5-(trifluoromethyl)phenyl]-5-[2-(4-cyclobutylpiperazin-1-yl)-2-oxoethyl]-4,5,6,7-tetrahydro[1,3]thiazolo [5,4-c]pyridine]
